Calls of active or inactive are those of the source. No cut-off for these calls is given here.
Columns and labels:
[1] = target: Tyrosine-protein kinase Blk (Homo sapiens) (UniProt P51451); experiment: Inhibition of BLK (unknown origin) at 0.5 uM relative to control
[2] = target: [Pyruvate dehydrogenase (acetyl-transferring)] kinase isozyme 1, mitochondrial (Homo sapiens) (UniProt Q15118); experiment: Inhibition of PDK1 (unknown origin) at 0.5 uM relative to control
[3] = target: Receptor-type tyrosine-protein kinase FLT3 (Homo sapiens) (UniProt P36888); experiment: Inhibition of human FLT3 at 0.5 uM assessed as competition rate relative to control
[4] = target: Epidermal growth factor receptor (Homo sapiens) (UniProt P00533); experiment: Inhibition of EGFR (unknown origin) at 0.5 uM relative to control
Epidermal growth factor receptor (Homo sapiens), sequence (P00533 whole entry): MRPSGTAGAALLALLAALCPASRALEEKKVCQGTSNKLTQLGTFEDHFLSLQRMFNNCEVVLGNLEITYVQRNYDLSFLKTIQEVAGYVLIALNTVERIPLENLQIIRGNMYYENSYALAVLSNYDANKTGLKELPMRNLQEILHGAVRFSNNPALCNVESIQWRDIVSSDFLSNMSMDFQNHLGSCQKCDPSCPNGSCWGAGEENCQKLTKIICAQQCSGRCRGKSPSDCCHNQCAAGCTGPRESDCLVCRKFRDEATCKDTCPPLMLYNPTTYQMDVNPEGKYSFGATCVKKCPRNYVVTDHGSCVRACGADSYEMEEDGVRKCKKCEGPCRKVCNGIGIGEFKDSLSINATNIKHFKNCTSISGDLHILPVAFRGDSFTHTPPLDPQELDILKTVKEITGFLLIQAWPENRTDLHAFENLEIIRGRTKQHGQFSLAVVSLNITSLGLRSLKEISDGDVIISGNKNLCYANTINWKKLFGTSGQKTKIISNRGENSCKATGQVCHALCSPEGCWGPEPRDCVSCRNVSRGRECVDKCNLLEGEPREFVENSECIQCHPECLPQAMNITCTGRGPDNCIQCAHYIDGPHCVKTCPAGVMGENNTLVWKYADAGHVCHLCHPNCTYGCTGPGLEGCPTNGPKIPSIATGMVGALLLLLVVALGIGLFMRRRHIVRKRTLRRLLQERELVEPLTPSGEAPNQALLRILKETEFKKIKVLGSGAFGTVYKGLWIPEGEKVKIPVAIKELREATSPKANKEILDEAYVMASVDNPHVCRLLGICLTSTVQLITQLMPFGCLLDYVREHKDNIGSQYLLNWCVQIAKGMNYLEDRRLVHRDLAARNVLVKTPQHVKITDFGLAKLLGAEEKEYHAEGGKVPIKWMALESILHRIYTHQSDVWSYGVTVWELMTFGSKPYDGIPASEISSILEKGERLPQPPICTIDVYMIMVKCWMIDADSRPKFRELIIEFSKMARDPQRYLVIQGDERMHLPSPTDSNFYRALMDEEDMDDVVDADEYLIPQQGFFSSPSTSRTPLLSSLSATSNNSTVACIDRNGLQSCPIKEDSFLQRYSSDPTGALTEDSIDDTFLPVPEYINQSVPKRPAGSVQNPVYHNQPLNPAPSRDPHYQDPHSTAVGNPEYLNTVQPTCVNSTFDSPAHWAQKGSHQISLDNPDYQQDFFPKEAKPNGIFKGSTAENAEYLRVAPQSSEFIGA

[5] = Clearance in 12 hr fasted SPF Sprague-Dawley rat at 5 mg/kg, iv upon 2 hrs fasting post-administration measured upto 24 hrs; assay type: ADME, organism-based; conditions: in vivo
U-937 [6] = experiment: Induction of cell cycle arrest in human U-937 cells assessed as downregulation of CDK2 at 0 to 300 nM measured after 24 hrs by western blot analysis; assay type: functional, cell-based; conditions: dose 0-300 nM
BaF3 = experiment: cells; conditions: Mus musculus, BaF3, 72 h
[7] = Oral bioavailability in 12 hr fasted SPF Sprague-Dawley rat at 15 mg/kg upon 2 hrs fasting post-administration measured upto 24 hrs; assay type: ADME, organism-based; conditions: in vivo
[8] = target: Receptor tyrosine-protein kinase erbB-4 (Homo sapiens) (UniProt Q15303); experiment: Inhibition of HER4 (unknown origin) at 0.5 uM relative to control
Receptor tyrosine-protein kinase erbB-4 (Homo sapiens), sequence (Q15303 whole entry): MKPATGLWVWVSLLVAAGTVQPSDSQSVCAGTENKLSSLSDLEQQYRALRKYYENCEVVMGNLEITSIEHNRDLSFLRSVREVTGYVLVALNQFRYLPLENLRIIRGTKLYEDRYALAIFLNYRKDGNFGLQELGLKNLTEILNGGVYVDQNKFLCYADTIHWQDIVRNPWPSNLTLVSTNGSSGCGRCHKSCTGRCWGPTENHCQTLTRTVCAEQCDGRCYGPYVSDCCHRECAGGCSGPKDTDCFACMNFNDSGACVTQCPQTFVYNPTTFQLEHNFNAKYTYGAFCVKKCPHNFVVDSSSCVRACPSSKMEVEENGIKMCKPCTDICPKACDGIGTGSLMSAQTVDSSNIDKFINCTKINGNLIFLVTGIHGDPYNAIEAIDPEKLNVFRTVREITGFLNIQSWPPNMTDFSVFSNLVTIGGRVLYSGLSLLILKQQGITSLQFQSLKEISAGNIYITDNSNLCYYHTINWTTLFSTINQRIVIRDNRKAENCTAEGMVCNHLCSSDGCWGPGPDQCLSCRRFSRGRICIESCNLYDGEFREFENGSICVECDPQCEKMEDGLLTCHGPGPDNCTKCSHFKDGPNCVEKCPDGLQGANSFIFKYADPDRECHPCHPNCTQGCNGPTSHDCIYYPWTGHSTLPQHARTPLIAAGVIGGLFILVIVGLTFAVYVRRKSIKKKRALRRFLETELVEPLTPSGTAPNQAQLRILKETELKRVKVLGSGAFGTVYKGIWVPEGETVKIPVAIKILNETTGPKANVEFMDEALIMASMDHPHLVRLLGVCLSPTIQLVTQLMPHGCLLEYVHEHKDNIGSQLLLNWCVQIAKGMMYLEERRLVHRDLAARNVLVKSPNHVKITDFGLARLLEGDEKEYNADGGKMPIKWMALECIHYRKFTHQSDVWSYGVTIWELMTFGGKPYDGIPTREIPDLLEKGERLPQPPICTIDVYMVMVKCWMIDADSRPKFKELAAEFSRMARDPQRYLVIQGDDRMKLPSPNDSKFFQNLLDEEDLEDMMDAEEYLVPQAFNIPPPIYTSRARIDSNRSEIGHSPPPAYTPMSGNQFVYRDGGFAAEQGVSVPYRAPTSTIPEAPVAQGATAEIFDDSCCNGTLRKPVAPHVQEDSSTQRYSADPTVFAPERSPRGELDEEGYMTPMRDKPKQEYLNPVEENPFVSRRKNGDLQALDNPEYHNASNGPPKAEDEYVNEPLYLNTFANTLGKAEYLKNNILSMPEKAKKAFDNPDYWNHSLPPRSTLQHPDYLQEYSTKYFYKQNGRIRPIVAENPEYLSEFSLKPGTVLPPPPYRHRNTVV

[9] = target: T1, Signal transducer and activator of transcription 5A (Homo sapiens) (UniProt P42229); experiment: Inhibition of STAT5 activation in human U-937 cells assessed as decrease in P-STAT5 at 100 uM by Western blot analysis; assay type: cell-based; conditions: time 0-24 hrs, TDE = time-dependent effect
T1 sequence (whole entry): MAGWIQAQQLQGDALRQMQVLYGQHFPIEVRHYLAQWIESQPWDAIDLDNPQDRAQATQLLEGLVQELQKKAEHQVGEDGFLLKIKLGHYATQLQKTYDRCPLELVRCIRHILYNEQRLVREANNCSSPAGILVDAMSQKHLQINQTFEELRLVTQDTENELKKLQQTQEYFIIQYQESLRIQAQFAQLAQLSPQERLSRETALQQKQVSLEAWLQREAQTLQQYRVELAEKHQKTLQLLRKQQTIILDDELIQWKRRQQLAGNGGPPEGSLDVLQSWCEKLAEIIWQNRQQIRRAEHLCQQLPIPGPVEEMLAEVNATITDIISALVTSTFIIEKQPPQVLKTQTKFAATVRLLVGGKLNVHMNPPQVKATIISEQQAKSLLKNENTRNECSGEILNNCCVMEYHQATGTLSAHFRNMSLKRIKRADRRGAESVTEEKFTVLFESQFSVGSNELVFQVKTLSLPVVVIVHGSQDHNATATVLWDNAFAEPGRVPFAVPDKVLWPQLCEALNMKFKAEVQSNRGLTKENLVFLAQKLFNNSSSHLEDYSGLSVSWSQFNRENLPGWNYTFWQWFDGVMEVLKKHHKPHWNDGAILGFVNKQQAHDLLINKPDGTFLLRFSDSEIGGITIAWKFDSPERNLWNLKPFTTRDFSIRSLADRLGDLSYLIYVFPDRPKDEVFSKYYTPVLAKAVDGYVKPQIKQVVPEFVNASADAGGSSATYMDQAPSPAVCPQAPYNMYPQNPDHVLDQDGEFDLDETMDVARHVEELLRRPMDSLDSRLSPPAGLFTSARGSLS

[10] = target: Tyrosine-protein kinase Tec (Homo sapiens) (UniProt P42680); experiment: Inhibition of TEC (unknown origin) at 0.5 uM assessed as competition rate relative to control
[11] = target: T2, Tyrosine-protein kinase JAK3 (Homo sapiens) (UniProt P52333); experiment: Inhibition of human JAK3 at 0.5 uM relative to control
T2 sequence (whole entry): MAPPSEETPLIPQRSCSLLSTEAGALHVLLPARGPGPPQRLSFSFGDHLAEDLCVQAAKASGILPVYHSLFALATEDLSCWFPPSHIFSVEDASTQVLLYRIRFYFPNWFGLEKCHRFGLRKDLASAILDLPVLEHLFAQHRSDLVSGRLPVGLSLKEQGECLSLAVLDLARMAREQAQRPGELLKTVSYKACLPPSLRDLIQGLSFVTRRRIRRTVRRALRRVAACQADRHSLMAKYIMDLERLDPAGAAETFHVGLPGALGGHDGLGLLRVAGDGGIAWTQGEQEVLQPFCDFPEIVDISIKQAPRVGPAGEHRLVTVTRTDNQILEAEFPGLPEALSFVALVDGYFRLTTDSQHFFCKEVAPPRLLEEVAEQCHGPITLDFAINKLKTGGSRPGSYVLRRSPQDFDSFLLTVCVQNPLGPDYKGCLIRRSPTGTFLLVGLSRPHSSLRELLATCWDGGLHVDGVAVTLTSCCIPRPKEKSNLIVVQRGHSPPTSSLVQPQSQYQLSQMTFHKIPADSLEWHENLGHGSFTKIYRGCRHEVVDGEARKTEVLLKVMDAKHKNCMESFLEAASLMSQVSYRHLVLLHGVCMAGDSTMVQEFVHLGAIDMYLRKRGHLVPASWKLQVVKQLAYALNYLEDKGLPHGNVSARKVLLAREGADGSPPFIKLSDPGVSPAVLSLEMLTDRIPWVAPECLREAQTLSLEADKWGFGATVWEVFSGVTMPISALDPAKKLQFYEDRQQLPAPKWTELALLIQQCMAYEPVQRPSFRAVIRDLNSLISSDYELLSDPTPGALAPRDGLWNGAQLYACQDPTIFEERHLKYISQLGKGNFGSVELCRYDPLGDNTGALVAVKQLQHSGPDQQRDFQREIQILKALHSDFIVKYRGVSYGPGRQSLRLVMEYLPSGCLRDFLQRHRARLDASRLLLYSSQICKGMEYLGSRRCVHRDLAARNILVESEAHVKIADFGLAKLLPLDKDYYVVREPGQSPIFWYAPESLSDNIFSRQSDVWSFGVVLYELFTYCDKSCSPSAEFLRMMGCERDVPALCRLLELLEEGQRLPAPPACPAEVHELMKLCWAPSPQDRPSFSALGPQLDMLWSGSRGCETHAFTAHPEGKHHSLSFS

[12] = target: Tyrosine-protein kinase TXK (Homo sapiens) (UniProt P42681); experiment: Inhibition of TXK (unknown origin) at 0.5 uM assessed as competition rate relative to control
Tyrosine-protein kinase TXK (Homo sapiens), sequence (P42681 whole entry): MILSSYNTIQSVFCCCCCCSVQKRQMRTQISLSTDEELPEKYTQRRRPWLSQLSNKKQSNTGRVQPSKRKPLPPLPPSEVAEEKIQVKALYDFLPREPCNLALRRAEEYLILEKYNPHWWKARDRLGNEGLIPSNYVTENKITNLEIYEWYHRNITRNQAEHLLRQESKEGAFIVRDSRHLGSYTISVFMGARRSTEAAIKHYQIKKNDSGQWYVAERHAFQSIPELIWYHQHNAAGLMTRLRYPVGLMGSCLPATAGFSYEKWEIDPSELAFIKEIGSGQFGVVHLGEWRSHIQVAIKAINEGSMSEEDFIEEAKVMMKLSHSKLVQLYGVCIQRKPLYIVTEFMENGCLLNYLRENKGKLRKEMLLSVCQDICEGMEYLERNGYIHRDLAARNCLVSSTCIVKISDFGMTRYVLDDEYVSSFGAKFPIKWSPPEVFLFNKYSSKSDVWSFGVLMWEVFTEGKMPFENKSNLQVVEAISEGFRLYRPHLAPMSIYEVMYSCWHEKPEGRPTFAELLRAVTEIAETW

[13] = target: T2, Tyrosine-protein kinase JAK3 (Homo sapiens); experiment: Inhibition of human JAK3 at 0.5 uM assessed as competition rate relative to control
U-937 [14] = experiment: Induction of cell cycle arrest in human U-937 cells assessed as downregulation of Cyclic D3 at 0 to 300 nM measured after 24 hrs by western blot analysis; assay type: functional, cell-based; conditions: dose 0-300 nM
[15] = target: Tyrosine-protein kinase JAK1 (Homo sapiens, UniProt P23458); experiment: Inhibition of human JAK1 at 0.5 uM relative to control
Tyrosine-protein kinase JAK1, sequence (P23458 whole entry): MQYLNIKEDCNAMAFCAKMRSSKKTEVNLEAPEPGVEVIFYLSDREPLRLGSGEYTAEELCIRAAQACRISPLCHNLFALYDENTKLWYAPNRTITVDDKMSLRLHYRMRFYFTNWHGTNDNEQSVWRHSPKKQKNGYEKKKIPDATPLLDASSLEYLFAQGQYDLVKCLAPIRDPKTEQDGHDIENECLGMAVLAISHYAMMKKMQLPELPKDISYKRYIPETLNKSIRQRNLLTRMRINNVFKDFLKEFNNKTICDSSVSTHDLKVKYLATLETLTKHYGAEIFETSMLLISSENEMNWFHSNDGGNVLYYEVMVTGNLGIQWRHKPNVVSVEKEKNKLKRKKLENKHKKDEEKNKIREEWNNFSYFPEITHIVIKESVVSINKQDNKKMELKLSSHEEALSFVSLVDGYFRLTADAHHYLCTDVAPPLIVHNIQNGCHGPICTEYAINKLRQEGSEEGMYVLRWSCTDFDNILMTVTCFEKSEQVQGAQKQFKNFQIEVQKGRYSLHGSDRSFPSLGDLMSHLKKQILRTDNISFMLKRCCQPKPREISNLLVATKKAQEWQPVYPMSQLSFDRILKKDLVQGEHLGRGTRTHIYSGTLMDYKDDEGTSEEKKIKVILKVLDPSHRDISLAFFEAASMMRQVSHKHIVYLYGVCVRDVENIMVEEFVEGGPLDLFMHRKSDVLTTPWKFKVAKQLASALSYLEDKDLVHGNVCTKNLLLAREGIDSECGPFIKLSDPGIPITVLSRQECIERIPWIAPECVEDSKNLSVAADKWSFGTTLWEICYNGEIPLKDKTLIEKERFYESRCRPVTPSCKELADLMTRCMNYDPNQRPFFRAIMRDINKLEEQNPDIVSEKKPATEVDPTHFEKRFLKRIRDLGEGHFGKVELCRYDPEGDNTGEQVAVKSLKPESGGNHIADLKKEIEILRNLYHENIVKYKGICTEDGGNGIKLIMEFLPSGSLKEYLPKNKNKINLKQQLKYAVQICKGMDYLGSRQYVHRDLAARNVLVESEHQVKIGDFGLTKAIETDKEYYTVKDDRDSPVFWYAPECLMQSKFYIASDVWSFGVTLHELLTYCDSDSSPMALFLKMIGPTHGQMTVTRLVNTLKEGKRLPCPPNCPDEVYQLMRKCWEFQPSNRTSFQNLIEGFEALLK

Tyrosine-protein kinase Blk (Homo sapiens), sequence (P51451 2-505 limits assumed): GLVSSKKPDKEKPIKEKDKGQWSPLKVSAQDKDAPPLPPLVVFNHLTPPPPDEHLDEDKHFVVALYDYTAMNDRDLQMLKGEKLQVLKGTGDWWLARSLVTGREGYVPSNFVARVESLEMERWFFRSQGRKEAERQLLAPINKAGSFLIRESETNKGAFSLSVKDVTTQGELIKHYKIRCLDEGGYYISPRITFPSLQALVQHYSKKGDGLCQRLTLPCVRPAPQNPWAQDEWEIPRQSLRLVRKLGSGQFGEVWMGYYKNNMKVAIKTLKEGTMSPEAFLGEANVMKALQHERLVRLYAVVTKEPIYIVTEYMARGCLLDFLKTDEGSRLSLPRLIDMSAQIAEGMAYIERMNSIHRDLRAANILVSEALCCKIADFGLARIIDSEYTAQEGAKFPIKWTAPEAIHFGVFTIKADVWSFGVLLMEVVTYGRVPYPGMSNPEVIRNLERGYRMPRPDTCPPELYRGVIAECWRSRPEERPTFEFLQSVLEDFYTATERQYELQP

- inhibition [1]: 60%
- inhibition [2]: 111%
- inhibition [3]: 70%
- inhibition [4]: 94%
- CL [5]: 155.22%
- IC50 (BaF3): 22.9 nM
- bioavailability [7]: 20.7%
- inhibition [8]: 106%
- inhibition [9]: Tde
- inhibition [10]: 40%
- inhibition [11]: 9%
- inhibition [12]: 40%
- inhibition [13]: 90%
- inhibition [15]: 84%
SMILES: C=CC(=O)Nc1cc(Nc2ncc(Cl)c(O[C@@H]3CO[C@H]4[C@@H]3OC[C@H]4OC)n2)ccc1N(C)CCN(C)C
- Activity (U-937 [6]): Active
- Activity (U-937 [14]): Active
